Results: patent publication US11198869B2, “Angelman syndrome antisense treatment” (The Texas A&M University System, priority 2017, dated 2021)

How the values were obtained:
IPW = IPW steady state RNA (qRT-PCR) in GABAergic iPSC-derived neurons; details: 10-point dose curve 1 nM-30 μM; 14 DIV to 20 DIV
SNORD116 snoRNAs = test: RNA-sequencing of Angelman syndrome iPSC neurons: SNORD116 snoRNAs; type: cell-based, human; details: 30 μM; six days post-treatment; RNA-seq
Experimental: (§1) RNA was isolated using Qiagen RNAeasy Plus (74136, Qiagen, Hilden, Germany). RNA concentration was determined using Qubit Fluorometric Quantitation (Thermo Fisher Scientific) and RNA quality was assessed using a 4200 Agilent TapeStation (Agilent, Santa Clara, Calif.). RNA-sequencing libraries were generated using the Illumina TruSeq Stranded Total RNA kit (20020597, Illumina, Inc., San Diego, Calif.) according to the manufacturer's protocol. 75 base-pair paired-end sequencing was performed using a NextSeq 500 (IIlumina, San Diego, Calif.) at the Texas A&M Institute for Genome Sciences and Society Genomics core. Raw sequencing reads were processed using CASAVA. The resulting FASTQ sequences were examined using FASTQC. […]
(§2) To determine whether ASO-4.4.PS.L and ASO-6.1.PO-1.O affect the levels of RNA transcripts encoded by the PWS polycistronic transcript, RNA-sequencing was performed on AS iPS cells treated with each ASO and the steady state RNA levels of SNURF, SNRPN, the SNORD116 host-gene transcript (SNHG116), the SNORD116 snoRNAs, IPW, the SNORD115 host-gene transcript (SNHG115), the SNORD115 snoRNAs, and UBE3A-AS were quantified. UBE3A steady state RNA levels were also measured. […]

SNURF = test: RNA-sequencing of Angelman syndrome iPSC neurons: SNURF; type: cell-based, human; details: 30 μM; six days post-treatment; RNA-seq
Experimental: as §1, §2

SNORD115 snoRNAs = test: RNA-sequencing of Angelman syndrome iPSC neurons: SNORD115 snoRNAs; type: cell-based, human; details: 30 μM; six days post-treatment; RNA-seq
Experimental: as §1, §2

SNRPN = test: RNA-sequencing of Angelman syndrome iPSC neurons: SNRPN; type: cell-based, human; details: 30 μM; six days post-treatment; RNA-seq
Experimental: as §1, §2

UBE3A-AS = UBE3A-AS steady state RNA (TaqMan qRT-PCR) in GABAergic iPSC-derived neurons; type: cell-based, human; details: for Relative Potency: relative to ASO-4.4.PS.L = 1
UBE3A = test: RNA-sequencing of Angelman syndrome iPSC neurons: UBE3A; type: cell-based, human; details: 30 μM; six days post-treatment; RNA-seq
Experimental: as §1, §2

[1] = Cluster 1 ASOs, 18 DIV to 24 DIV, parallel model, 4 Parameter logistic (Hill)
[2] = candidate ASOs, 18 DIV to 24 DIV
[3] = candidate ASOs, 18 DIV to 24 DIV, 4-parameter logistic (Hill)
[4] = candidate ASOs, treated 18 DIV, RNA 24 DIV, 10-point dose curve, n=2, full model, 4-parameter logistic (Hill)

IC50 Ratio relative to ASO-4.4.PS.L (UBE3A-AS; Cluster 1 ASOs, equivalence, two one-sided tests) | Limit Exceeded (equivalence of IC50 relative to ASO-4.4.PS.L) (UBE3A-AS; Cluster 1 ASOs, two one-sided tests) | Compound | effect on IPW RNA levels (in words) (IPW) | Difference, SNORD116 RNA level relative to vehicle (SNORD116 snoRNAs) | Difference, SNURF RNA level relative to vehicle (SNURF) | Difference, SNORD115 RNA level relative to vehicle (SNORD115 snoRNAs) | Difference, SNRPN RNA level relative to vehicle (SNRPN) | IC50 (UBE3A-AS; [1]) [nM] | Relative Potency (UBE3A-AS; Cluster 1 ASOs, parallel model) | 30 μM (Mean), normalized UBE3A-AS RNA level relative to vehicle (UBE3A-AS; [2]) | Emax (normalized UBE3A-AS RNA level relative to vehicle) (UBE3A-AS; [3]) | IC50 (UBE3A-AS; [4]) [nM] | Difference, UBE3A RNA level relative to vehicle (UBE3A)
– | – | CC[C@@]1(O)C(=O)OCc2c1cc1n(c2=O)Cc2cc3c(CN(C)C)c(O)ccc3nc2-1 [Topotecan, reference compound] | significant effect on SNORD116, IPW, SNORD115, and SNORD109A/B RNA levels that was dose dependent | – | – | – | – | – | – | – | – | – | –
– | – | A^L*G^L*A^L*a*t*g*g*c*a*c*a*t*c*t*5mC^L*T^L*T^L*G^L (NNNATGGCACATCTNNNN; LNA gapmer, PS, 5-methylcytosine, chemistry not fully specified) [ASO-4.4.PS.L] | – | 0.27 | 0.49 | −0.26 | −0.02 | 50.3 | 1 | 0.05 | 0.0 | 26.6 | 0.90
0.86 | Lower | C^O*U^O*G^O*G^O-t*g*t*c*a*a*c*a*a*g-C^O*C^O*A^O*A^o [ASO-6.1.PO-1.O] | – | −0.04 | −0.53 | 0.24 | 0.03 | 199 | 0.3 | 0.04 | −0.1 | 315 | 0.74
– | – | U^O*A^O*G^O*A^O*A^O*t*g*g*c*a*c*a*t*c*t*C^O*U^O*U^O*G^O*G^O [ASO-4] | significant effect on the RNA levels of IPW, SNORD115, and SNORD109A/B but not in a dose dependent manner | – | – | – | – | – | – | – | – | – | –
